Data taken from ChEMBL document CHEMBL4339198, “Use of a Conformational-Switching Mechanism to Modulate Exposed Polarity: Discovery of CCR2 Antagonist BMS-741672” (ACS Med Chem Lett, 2019).
Activity calls are given as the source filed them. The rule behind the calls is not given here.

Key:
[1] = Permeability of the compound at pH 7.4 by PAMPA; type: ADME; details: read-out: permeability
[2] = Stability in human liver microsomes assessed as parent compound remaining at 3 uM measured after 10 mins; type: ADME, Microsome; details: read-out: Stability
[3] = Drug metabolism in human liver microsomes assessed as rate of disappearance at 3 uM; type: ADME, Microsome
[4] = Oral bioavailability in mouse; type: ADME, organism-based; details: in vivo
[5] = Clearance in iv dosed mouse; type: ADME, organism-based; details: in vivo
[6] = molecular target: C-C chemokine receptor type 2 (Homo sapiens, UniProt P41597)
Description: Displacement of [125I]MCP1 from CCR2 in human PBMC measured after 30 mins

[7] = molecular target: T1, C-C chemokine receptor type 5 (Homo sapiens, UniProt P51681)
Description: Antagonist activity at CCR5 (unknown origin) expressed in human HT1080 cells assessed as blockade of MIP1beta-binding to receptor

[8] = Half life in iv dosed rat; details: in vivo
[9] = Oral bioavailability in cynomolgus monkey; details: in vivo
[10] = Half life in iv dosed cynomolgus monkey; details: in vivo
[11] = molecular target: T1, C-C chemokine receptor type 5; assay: Binding affinity to CCR5 in T-cell (unknown origin)
Cynomolgus monkey = assay: In vivo antagonist activity at CCR2 in po dosed cynomolgus monkey assessed as inhibition of MCP1-induced chemotaxis administered once daily for three days followed by MCP1 stimulation and measured after 18 hrs; type: functional, organism-based; details: Macaca fascicularis
Mus musculus = assay: Protection against C57BL/6-SVJ12 mouse model of thioglycollate-induced peritonitis administered orally 1 hr prior to thioglycollate-stimulation for 48 hrs and subsequent bid dosing for 3 days following 1 hr thioglycollate-stimulation measured by Wright-Giemsa Staining based flow cytometry; type: functional, organism-based
[12] = Toxicity in rat administered as single dose; details: in vivo
[13] = Toxicity in monkey administered as single dose; design: species or system Macaca mulatta; details: rhesus monkey, in vivo
[14] = Toxicity in rat measured after 14 days; details: in vivo, 336 h
[15] = Cardiotoxicity in telemetered monkey assessed as changes in QTc interval at 30 mg/kg; type: toxicity, organism-based, Macaca mulatta; details: rhesus monkey, in vivo
hERG (KCNH2) [16] = molecular target: T2, hERG (KCNH2) (Homo sapiens, UniProt Q12809); assay: in vitro
Description: Inhibition of human ERG at 10 uM by manual patch-clamp assay relative to control

hERG (KCNH2) [17] = molecular target: T2, hERG (KCNH2); assay: Inhibition of human ERG at 30 uM by manual patch-clamp assay relative to control

T2 sequence (Q12809 whole entry): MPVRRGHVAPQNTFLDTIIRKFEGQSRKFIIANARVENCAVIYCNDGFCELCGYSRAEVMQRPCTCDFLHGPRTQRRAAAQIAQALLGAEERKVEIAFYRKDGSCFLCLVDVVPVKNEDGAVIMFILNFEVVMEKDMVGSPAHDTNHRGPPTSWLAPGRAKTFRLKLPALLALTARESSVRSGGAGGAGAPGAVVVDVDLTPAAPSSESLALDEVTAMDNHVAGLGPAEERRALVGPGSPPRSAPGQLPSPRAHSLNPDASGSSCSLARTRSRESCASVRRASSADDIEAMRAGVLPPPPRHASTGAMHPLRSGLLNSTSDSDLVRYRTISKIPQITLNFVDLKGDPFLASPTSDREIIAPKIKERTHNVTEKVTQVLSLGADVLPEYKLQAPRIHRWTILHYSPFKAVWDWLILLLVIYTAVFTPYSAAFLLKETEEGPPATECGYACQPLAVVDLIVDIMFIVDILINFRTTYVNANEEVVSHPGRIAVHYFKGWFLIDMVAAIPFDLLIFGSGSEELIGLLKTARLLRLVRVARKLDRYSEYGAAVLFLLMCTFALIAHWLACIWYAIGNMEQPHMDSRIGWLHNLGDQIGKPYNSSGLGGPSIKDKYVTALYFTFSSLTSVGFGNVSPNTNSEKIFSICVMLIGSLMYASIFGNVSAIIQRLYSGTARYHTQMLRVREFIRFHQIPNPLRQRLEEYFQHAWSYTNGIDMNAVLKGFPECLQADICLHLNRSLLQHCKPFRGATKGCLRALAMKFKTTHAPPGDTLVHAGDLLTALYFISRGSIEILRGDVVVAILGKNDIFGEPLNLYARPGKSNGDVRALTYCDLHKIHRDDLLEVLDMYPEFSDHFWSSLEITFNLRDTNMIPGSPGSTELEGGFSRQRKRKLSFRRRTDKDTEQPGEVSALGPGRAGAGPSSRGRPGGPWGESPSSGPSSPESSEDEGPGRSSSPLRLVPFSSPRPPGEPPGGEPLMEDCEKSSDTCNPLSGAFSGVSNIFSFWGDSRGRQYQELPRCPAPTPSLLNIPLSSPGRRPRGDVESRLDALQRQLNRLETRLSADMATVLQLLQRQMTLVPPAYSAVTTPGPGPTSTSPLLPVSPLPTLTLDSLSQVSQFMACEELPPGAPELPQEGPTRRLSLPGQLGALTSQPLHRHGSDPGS
T1 sequence (P51681 whole entry): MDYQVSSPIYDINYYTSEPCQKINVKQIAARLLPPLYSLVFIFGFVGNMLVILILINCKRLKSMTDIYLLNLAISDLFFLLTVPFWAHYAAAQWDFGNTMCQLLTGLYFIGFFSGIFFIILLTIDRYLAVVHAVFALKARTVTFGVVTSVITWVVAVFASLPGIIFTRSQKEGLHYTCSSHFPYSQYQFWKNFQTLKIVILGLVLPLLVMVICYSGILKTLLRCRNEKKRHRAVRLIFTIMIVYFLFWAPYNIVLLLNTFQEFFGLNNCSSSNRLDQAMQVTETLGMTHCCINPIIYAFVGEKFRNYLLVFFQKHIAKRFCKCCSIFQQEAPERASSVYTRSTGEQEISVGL
C-C chemokine receptor type 2, sequence (P41597 whole entry): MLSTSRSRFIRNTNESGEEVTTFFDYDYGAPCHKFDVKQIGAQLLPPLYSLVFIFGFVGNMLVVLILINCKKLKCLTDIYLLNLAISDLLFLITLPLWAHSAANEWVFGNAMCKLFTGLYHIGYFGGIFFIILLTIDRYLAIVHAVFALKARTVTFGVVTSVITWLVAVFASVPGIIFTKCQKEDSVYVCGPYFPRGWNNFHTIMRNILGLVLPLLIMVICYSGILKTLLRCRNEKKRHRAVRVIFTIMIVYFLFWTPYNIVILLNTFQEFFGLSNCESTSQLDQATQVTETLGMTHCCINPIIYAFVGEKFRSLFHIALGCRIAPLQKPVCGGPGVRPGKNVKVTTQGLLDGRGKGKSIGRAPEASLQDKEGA

| Papp [1] [×10⁻⁶ cm/s] | remaining at 10 min, 3 µM [2] [%] | Drug metabolism [3] [nmol/min] | bioavailability [4] [%] | clearance [5] [mL/min/kg] | IC50 [6] [nM] | IC50 [7] [nM] | half-life [8] [h] | bioavailability [9] [%] | half-life [10] [h] | Kd [11] [nM] | SMILES | inhibition (Cynomolgus monkey) | Activity (Mus musculus) | Activity [12] | Activity [13] | Activity [14] | Activity [15] | inhibition at 10 µM (hERG (KCNH2) [16]) [%] | inhibition at 30 µM (hERG (KCNH2) [17]) [%] |
| --- | --- | --- | --- | --- | --- | --- | --- | --- | --- | --- | --- | --- | --- | --- | --- | --- | --- | --- | --- |
| 52.9 | 100 | 0 | – | – | – | – | – | – | – | – | CCC[C@@H]1C[C@H](N(C)C(C)C)CC[C@@H]1N1CC[C@H](Nc2ncnc3ccc(C(F)(F)F)cc23)C1=O | – | – | – | – | – | – | – | – |
| 59.3 | 85 | 0.05 | 35 | 258 | 1.9 | 3470 | – | – | – | – | CC(C)N(C)[C@@H]1CC[C@H](N2CC[C@H](NC(=O)c3cccc(C(F)(F)F)c3)C2=O)[C@H](NS(C)(=O)=O)C1 | – | – | – | – | – | – | – | – |
| – | 95 | 0.01 | 28 | 38 | – | 780 | 5.1 | 46 | 3.2 | 23.6 | CC(=O)N[C@@H]1C[C@H](N(C)C(C)C)CC[C@@H]1N1CC[C@H](Nc2ncnc3ccc(C(F)(F)F)cc23)C1=O | Active | Active | Non-Toxic | Non-Toxic | Non-Toxic | Non-Toxic | 33 | – |
| 9.4 | 100 | 0 | – | 70 | – | 1640 | – | – | – | – | CC(C)N(C)[C@@H]1CC[C@H](N2CC[C@H](NC(=O)c3cccc(C(F)(F)F)c3)C2=O)[C@H](CS(C)(=O)=O)C1 | – | – | – | – | – | – | – | – |
| 1.4 | 99 | 0 | – | – | 0.9 | 190 | – | – | – | – | CC(C)N(C)[C@@H]1CC[C@H](N2CC[C@H](Nc3ncnc4ccc(C(F)(F)F)cc34)C2=O)[C@H](CS(C)(=O)=O)C1 | – | – | – | – | – | – | – | 16 |
| 39.4 | 58 | 0.13 | – | – | 0.4 | 287 | – | – | – | – | CC(C)N(C)[C@@H]1CC[C@H](N2CC[C@H](Nc3ncnc4ccc(C(F)(F)F)cc34)C2=O)[C@H](NS(C)(=O)=O)C1 [BMS-741672] | – | – | – | – | – | – | 74 | – |
| 6.5 | 100 | 0 | 11 | 67 | 1.4 | 1570 | – | – | – | – | CC(C)N(C)[C@@H]1CC[C@H](N2CC[C@H](NC(=O)c3cccc(C(F)(F)F)c3)C2=O)[C@H](N(C)S(C)(=O)=O)C1 | – | – | – | – | – | – | 7 | – |
